Biological target: T1, ALK (baculovirus expressed human ALK kinase domain F1098-K1410) (Homo sapiens, UniProt Q9UM73)
T1 construct: baculovirus expressed human ALK kinase domain F1098-K1410; made in house
Assay: Luciferase-Coupled Chemiluminescent Kinase assay (LCCA), ALK biochemical activity
Conditions: inhibition of ALK; mean values; 1 μM ATP, 4 μM poly-AEKY, 12 nM ALK, 2 hours ambient temperature
Experimental: ALK biochemical activity was assessed using a Luciferase-Coupled Chemiluminescent Kinase assay (LCCA) format in which kinase activity was measured as the percent ATP remaining following the kinase reaction. ATP remaining after the kinase reaction was detected by luciferase-luciferin-coupled chemiluminescence.
The reaction was initiated by mixing test compounds, 1 μM ATP, 4 μM poly-AEKY and 12 nM ALK (baculovirus expressed human ALK kinase domain F1098-K1410) in a 20 μL assay buffer ([…] pH 7.5, 10 mM MgCl2, 0.02% Triton X-100, 100 mM DTT, 2 mM MnCl2). The mixture was incubated at ambient temperature for 2 hours after which 20 μL luciferase-luciferin mix was added and the chemiluminescent signal read using a Wallac Victor^2 reader. The luciferase-luciferin mix consists of 50 mM HEPES, pH 7.8, 8.5 μg/mL oxalic acid (pH 7.8), 5 (or 50) mM DTT, 0.4% Triton X-100, 0.25 mg/mL coenzyme A, 63 μM AMP, 28 μg/mL luciferin and 40,000 units of light/mL luciferase.
Consumption of ATP by ALK can thus be quantified and utilized as a measure of inhibition of ALK activity by compounds described herein. By employing serial dilutions of compounds to be tested, the ability of test compounds to inhibit ALK activity can be determined.

T1 sequence (Q9UM73 1098-1410): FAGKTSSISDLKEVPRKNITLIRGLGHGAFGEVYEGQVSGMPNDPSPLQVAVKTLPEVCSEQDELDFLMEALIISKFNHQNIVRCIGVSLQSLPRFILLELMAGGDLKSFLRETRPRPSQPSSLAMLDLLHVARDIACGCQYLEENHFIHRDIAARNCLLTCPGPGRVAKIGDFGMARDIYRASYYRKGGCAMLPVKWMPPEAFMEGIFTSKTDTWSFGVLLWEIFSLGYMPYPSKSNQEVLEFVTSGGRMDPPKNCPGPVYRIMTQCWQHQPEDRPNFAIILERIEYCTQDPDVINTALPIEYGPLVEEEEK

IC50 [nM] | Compound
≤ 99 | COc1cc(F)c2c(-c3ccc(O)cc3)nc3[nH]nc(C)c3c2c1F [Example 79, 4-[6,9-difluoro-1-methyl-8-(methyloxy)-3H-pyrazolo[3,4-c]isoquinolin-5-yl]phenol]
100 to 999 | COc1ccc2c(-c3ccc(O)c(Br)c3)nc3[nH]nc(C)c3c2c1OCCN1CCOCC1 [Example 80, 2-bromo-4-{1-methyl-8-(methyloxy)-9-[(2-morpholin-4-ylethyl)oxy]-3H-pyrazolo[3,4-c]isoquinolin-5-yl}phenol]
100 to 999 | COc1ccc2c(-c3ccc(O)c(Cl)c3)nc3[nH]nc(C)c3c2c1OCCN1CCOCC1 [Example 81, 2-chloro-4-{1-methyl-8-(methyloxy)-9-[(2-morpholin-4-ylethyl)oxy]-3H-pyrazolo[3,4-c]isoquinolin-5-yl}phenol]
100 to 999 | COc1cc2c(-c3ccc(O)cc3)nc3[nH]nc(CNCc4ccccc4)c3c2cc1OC [Example 82, 4-(7,8-bis(methyloxy)-1-{[(phenylmethyl)amino]methyl}-3H-pyrazolo[3,4-c]isoquinolin-5-yl)phenol]
100 to 999 | COc1cc2c(-c3cc(C)c(O)cc3C)nc3[nH]nc(C)c3c2cc1OC [Example 83, 2,5-dimethyl-4-[1-methyl-7,8-bis(methyloxy)-3H-pyrazolo[3,4-c]isoquinolin-5-yl]phenol]
≤ 99 | COc1cc2c(-c3cc(Cl)c(O)cc3Cl)nc3[nH]nc(C)c3c2cc1OC [Example 85, 2,5-dichloro-4-[1-methyl-7,8-bis(methyloxy)-3H-pyrazolo[3,4-c]isoquinolin-5-yl]phenol]
≤ 99 | COc1ccc2c(-c3ccc(O)c(Br)c3)nc3[nH]nc(C)c3c2c1OCC1CCN(C)CC1 [Example 87, 2-bromo-4-(1-methyl-8-(methyloxy)-9-{[(1-methylpiperidin-4-yl)methyl]oxy}-3H-pyrazolo[3,4-c]isoquinolin-5-yl)phenol]
≤ 99 | COc1cc2c(-c3ccc(O)c(Cl)c3)nc3[nH]nc(C)c3c2cc1OCC1CCN(C)CC1 [Example 88, 2-chloro-4-(1-methyl-7-(methyloxy)-8-{[(1-methylpiperidin-4-yl)methyl]oxy}-3H-pyrazolo[3,4-c]isoquinolin-5-yl)phenol]
≤ 99 | COc1ccc2c(-c3ccc(O)cc3)nc3[nH]nc(C)c3c2c1F [Example 89, 4-[9-fluoro-1-methyl-8-(methyloxy)-3H-pyrazolo[3,4-c]isoquinolin-5-yl]phenol]
≤ 99 | COCCOc1c(OC)ccc2c(-c3ccc(O)cc3)nc3[nH]nc(C)c3c12 [Example 90, 4-(1-methyl-8-(methyloxy)-9-{[2-(methyloxy)ethyl]oxy}-3H-pyrazolo[3,4-c]isoquinolin-5-yl)phenol]
≤ 99 | COc1ccc2c(-c3ccc(O)c(Cl)c3)nc3[nH]nc(C)c3c2c1OCC1CCN(C)CC1 [Example 91, 2-chloro-4-(1-methyl-8-(methyloxy)-9-{[(1-methylpiperidin-4-yl)methyl]oxy}-3H-pyrazolo[3,4-c]isoquinolin-5-yl)phenol]
≤ 99 | COc1cc2c(c(-c3ccc(O)cc3)nc3[nH]nc(C)c32)c(Br)c1C [Example 92, 4-[6-bromo-1,7-dimethyl-8-(methyloxy)-3H-pyrazolo[3,4-c]isoquinolin-5-yl]phenol]
≤ 99 | COc1cc2c(c(-c3ccc(O)cc3)nc3[nH]nc(C)c32)c(F)c1OC [Example 93, 4-[6-fluoro-1-methyl-7,8-bis(methyloxy)-3H-pyrazolo[3,4-c]isoquinolin-5-yl]phenol]
≤ 99 | COc1c(C)cc2c(-c3ccc(O)cc3)nc3[nH]nc(C)c3c2c1Cl [Example 94, 4-[9-chloro-1,7-dimethyl-8-(methyloxy)-3H-pyrazolo[3,4-c]isoquinolin-5-yl]phenol]
≤ 99 | CCN1CCC(COc2cc3c(cc2OC)c(-c2ccc(O)c(Cl)c2)nc2[nH]nc(C)c23)CC1 [Example 95, 2-chloro-4-[8-{[(1-ethylpiperidin-4-yl)methyl]oxy}-1-methyl-7-(methyloxy)-3H-pyrazolo[3,4-c]isoquinolin-5-yl]phenol]
